In patent publication US20150071856A1, “ANTAGONISTIC PEPTIDES FOR FRIZZLED-1 AND FRIZZLED-2” (Universiteit Maastricht, priority 2013, published 2015):
Residues, ends and D or L forms follow the SMILES beside them.

How the values were obtained:
[1] = target: T1, hFzd-5 (Homo sapiens, UniProt Q13467); experiment: Receptor specificity: luciferase in HEK293 superTOPflash cells overexpressing hFzd-5; assay type: cell-based; conditions: UM206 1.10^−8 M
T1 construct: expressed in transfected cells; host or cells: HEK293 superTOPflash (transient, Fugene6, pcDNA3.0)
Description: (§1) In FIG. 3, Panel E, the efficacy of UM206 to block the Wnt3a-induced activation of luciferase activity in HEK293 superTOPflash cells transfected with different Fzds is shown.
The cell lines were cultured in 75 cm^2 culture flasks (Corning, Schiphol, the Netherlands) in Dulbeco's modified essential medium with L-glutamine (2 mM), 10% fetal calf serum (Invitrogen, Merelbeke, Belgium), and 1% gentamycin (Sigma-Aldrich, Zwijndrecht, The Netherlands). Before starting the experiment, the cell lines were treated with plasmocin 25 μg/ml (Invivogen, Toulose, France) and tested with a mycoalert mycoplasma detection kit (Lonza, Rockland Me., USA). Cells were transiently transfected with Fugene6 (Roche, Indianapolis Ind., USA) with plasmid DNA, pcDNA3.1/hygro (Invitrogen) with frizzled-1/2/4 or Wnts 3a-5a or with pcDNA3.0 (Invitrogen) containing the β-catenin or frizzled-5 sequence. After transfection, the cells were cultured for 24 hours in conditioned medium, collected from the cultured L-cells, L-cells with Wnt3a or 5a (Invitrogen). At the same moment the antagonist was added.

[2] = system: mouse and human Fzd-1 and -2; experiment: Antagonism of activation of mouse and human Fzd-1 and -2 by Wnt3a (data not shown); assay type: cell-based
Description: as §1

[3] = system: rFzd-1 or -2; experiment: TOPflash experiments in CHO and COS-7 cells overexpressing rFzd-1 or -2; assay type: cell-based, rat
Description: Three areas of high homology that contained two cysteines are underlined (UM207), (UM208) and (UM206). In FIGS. 9B through 9D, the inhibitory effect of these three peptides on Wnt3a-induced luciferase activity in HEK293-superTOPflash is shown. […] Again, the peptides by themselves had no effect on the luciferase activity.
For the luciferase experiments not in HEK cells, the cells were additionally transfected with a TOPflash construct, eight TCF/LEF binding sites cloned into the pTA-Luc vector. Luciferase activity was measured using luciferase assay system (Promega, Madison Wis., USA).

[4] = system: myocardial infarction; experiment: Echocardiography of mice after myocardial infarction; assay type: in vivo; conditions: UM206-treated group post-MI
Description: All animals were subjected to extensive echocardiography studies for the assessment of myocardial infarct size, LV cavity dimensions and ventricular function. Echocardiography examination was performed under 2% isofluorane. Echocardiograms were recorded with Philips Sonos 5500 ultrasound system (Philips, Eindhoven, the Netherlands) using a 20-MHz linear probe.

T1 sequence (Q13467 27-585): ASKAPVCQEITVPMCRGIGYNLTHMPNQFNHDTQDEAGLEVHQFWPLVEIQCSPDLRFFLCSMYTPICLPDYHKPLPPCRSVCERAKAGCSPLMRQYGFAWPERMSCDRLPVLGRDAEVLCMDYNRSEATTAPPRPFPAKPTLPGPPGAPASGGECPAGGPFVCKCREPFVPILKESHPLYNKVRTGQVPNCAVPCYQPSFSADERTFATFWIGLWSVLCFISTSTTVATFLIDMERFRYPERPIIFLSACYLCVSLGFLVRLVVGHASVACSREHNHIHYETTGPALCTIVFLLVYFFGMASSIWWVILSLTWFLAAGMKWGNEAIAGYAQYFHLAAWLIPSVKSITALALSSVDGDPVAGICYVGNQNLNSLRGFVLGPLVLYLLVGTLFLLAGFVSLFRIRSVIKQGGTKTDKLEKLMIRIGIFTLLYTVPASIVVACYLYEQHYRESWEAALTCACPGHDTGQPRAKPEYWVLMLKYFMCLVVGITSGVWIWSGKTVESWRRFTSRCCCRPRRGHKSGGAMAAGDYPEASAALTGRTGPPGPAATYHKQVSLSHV

`CSCC[C@H](NC(=O)CNC(=O)[C@H](CCC(=O)O)NC(=O)[C@H](CO)NC(=O)[C@@H](NC(=O)[C@H](CCCCN)NC(=O)[C@H](CC(N)=O)NC(=O)[C@H](CS)NC(C)=O)[C@@H](C)O)C(=O)N[C@@H](CC(=O)O)C(=O)NCC(=O)N[C@@H](CS)C(=O)N[C@@H](CCC(=O)O)C(=O)N[C@@H](CC(C)C)C(N)=O` [UM206, Ac-Cys-Asn-Lys-Thr-Ser-Glu-Gly-Met-Asp-Gly-Cys-Glu-Leu-NH2] (Ac-CNKTSEGMDGCEL-NH2) was tested, and the “effect on Wnt3a-induced luciferase activity, frizzled-5” value [1] was “no effect”, the “antagonizing the activation of mouse and human Fzd-1 and -2 by Wnt3a” value [2] was “fully effective” and the “inhibition of Wnt3a-induced TOPflash activation in CHO and COS-7 cells” value [3] was “can selectively block canonical Wnt/Fzd-1/2 signaling”. For the same compound, the “change of ejection fraction versus saline” value [4] was “doubling of the ejection fraction” and the “reduction in end diastolic volume of the left ventricle versus saline” value [4] was 40%.
